Marks after values point to notes of the source that are not given here.
Columns and labels:
[1] = Long-term repeated administration in diet-induced obese C57BL/6 mice (DIO); assay type: in vivo, C57/BL6 mice
Text: Experimental methods: C57/BL6 mice were randomly divided into a normal group (NFD) and a model group (HFD) at the fifth week of age. The normal group was fed with ordinary maintenance feed, while the other groups were fed with high-fat feed D12492. The body weight and food intake of mice were monitored every 3 weeks. After 16 weeks of feeding, the body weights of mice in the model group and the normal group were (49.0±2.3) g and (31.0±2.0) g, respectively, and the difference between the two groups was statistically significant. […] Body weight and food intake were measured before each administration. After 3 weeks of administration, an intraperitoneal glucose tolerance test was performed. The mice were slaughtered and samples were collected 72 h after the last administration. The liver weight was recorded, and the liver pathological conditions and blood biochemical indexes of each group were tested.

[2] = Glucose tolerance assessment in normal C57BL/6 mice (Example 5); assay type: in vivo; settings: 3 nmol/kg s.c. single dose, 24 h after administration
Experimental: (§1) Twelve hours after the single administration, the animals were fasted for 12 hours and had free access to water. Blood was collected from the tail vein to determine the basal blood glucose level of each group of animals, and then 2 g/kg glucose solution was injected intraperitoneally. Blood glucose was tested at 15, 30, 60, and 90 min after glucose administration. The blood glucose concentration-time curve was drawn according to the blood glucose values measured at different time points, and the AUC0~90min of each dose group was calculated as shown in Table 5 and Figure 2. Table 5: Effects of single administration of HEC-PT86, HEC-PT96, HEC-PT112, HEC-PT113, HEC-PT114, and HEC-PT119 on glucose tolerance in normal C57 mice 24 h after administration

[3] = In vivo efficacy evaluation in db/db mouse model (blood glucose); parameters: species or system db/db mice; settings: db/db mice
Experimental: Blood glucose was tested before each administration.

[4] = Glucose tolerance assessment in normal C57BL/6 mice (Example 4); assay type: in vivo; settings: 3 nmol/kg s.c. single dose, 24 h after administration
Experimental: as §1, with “Table 4” for “Table 5”, “Figure 1.” for “Figure 2.”, “Table 4:” for “Table 5:”, “of HEC-PT74, HEC-PT75, HEC-PT77, HEC-PT78, HEC-PT80,” for “of HEC-PT86, HEC-PT96, HEC-PT112, HEC-PT113, HEC-PT114,”, “and HEC-PT82” for “and HEC-PT119”

[5] = 10 nmol/kg s.c. once every 3 days, D7
[6] = 10 nmol/kg s.c. once every 3 days, D10
[7] = 10 nmol/kg s.c. once every 3 days, D13
[8] = 10 nmol/kg s.c. once every 3 days, D16
[9] = 10 nmol/kg s.c. once every 3 days, D19
[10] = 10 nmol/kg s.c. once every 3 days, D22
[11] = 10 nmol/kg s.c. once every 3 days, D25
[12] = 10 nmol/kg s.c. once every 3 days, D28
[13] = long-term administration 10 nmol/kg, 72 h after the last administration
[14] = long-term administration 10 nmol/kg, blood biochemical index
[15] = 15 min after 2 g/kg glucose i.p.
[16] = 30 min after 2 g/kg glucose i.p.
[17] = 60 min after 2 g/kg glucose i.p.
[18] = 90 min after 2 g/kg glucose i.p.
[19] = basal before 2 g/kg glucose i.p.
[20] = blood glucose AUC, 2 g/kg glucose i.p.

CC[C@H](C)[C@H](NC(=O)[C@H](CC(C)C)NC(=O)[C@H](Cc1c[nH]c2ccccc12)NC(=O)[C@H](CCC(N)=O)NC(=O)[C@@H](NC(=O)[C@H](Cc1ccccc1)NC(=O)[C@H](C)NC(=O)[C@H](CCCCNC(=O)COCCOCCNC(=O)COCCOCCNC(=O)CC[C@H](NC(=O)CCCCCCCCCCCCCCCCCCC(=O)O)C(=O)O)NC(=O)[C@H](CCC(N)=O)NC(=O)[C@H](C)NC(=O)[C@@H](NC(=O)[C@H](CCCCN)NC(=O)[C@H](CC(=O)O)NC(=O)[C@H](CC(C)C)NC(=O)C(C)(C)NC(=O)[C@@H](NC(=O)[C@H](CO)NC(=O)[C@H](Cc1ccc(O)cc1)NC(=O)[C@H](CC(=O)O)NC(=O)[C@H](CO)NC(=O)[C@@H](NC(=O)[C@H](Cc1ccccc1)NC(=O)[C@@H](NC(=O)CNC(=O)[C@H](CCC(=O)O)NC(=O)C(C)(C)NC(=O)[C@@H](N)Cc1ccc(O)cc1)[C@@H](C)O)[C@@H](C)O)[C@@H](C)CC)[C@@H](C)CC)C(C)C)C(=O)N[C@@H](C)C(=O)NCC(=O)NCC(=O)N1CCC[C@H]1C(=O)N[C@@H](CO)C(=O)N[C@@H](CO)C(=O)NCC(=O)N[C@@H](C)C(=O)N1CCC[C@H]1C(=O)N1CCC[C@H]1C(=O)N1CCC[C@H]1C(=O)N[C@@H](CO)C(N)=O [LY3298176, tirzepatide, reference compound]
Cumulative food intake (g/pcs) D7 [1, 5]: 10.2 g/pcs | Weight gain rate (%) D7 [1, 5]: -15.4±2.9% | Cumulative food intake (g/pcs) D10 [1, 6]: 13.0 g/pcs | Weight gain rate (%) D10 [1, 6]: -19.6±3.2% | Cumulative food intake (g/each) D13 [1, 7]: 16.6 g/each | Weight gain rate (%) D13 [1, 7]: -24.3±6.4% | Cumulative food intake (g/each) D16 [1, 8]: 22.1 g/each | Weight gain rate (%) D16 [1, 8]: -23.4±5.1% | Cumulative food intake (g/each) D19 [1, 9]: 27.9 g/each | Weight gain rate (%) D19 [1, 9]: -26.0±7.3% | Cumulative food intake (g/each) D22 [1, 10]: 34.2 g/each | Weight gain rate (%) D22 [1, 10]: -26.7±7.7% | Cumulative food intake (g/each) D25 [1, 11]: 40.6 g/each | Weight gain rate (%) D25 [1, 11]: -27.7±7.0% | Cumulative food intake (g/each) D28 [1, 12]: 48.1 g/each | Weight gain rate (%) D28 [1, 12]: -28.2±7.3% | Cumulative food intake (g/each) D30 ([1]; 10 nmol/kg s.c. once every 3 days, D30): 51.9^a g/each | Weight gain rate (%) D31 ([1]; 10 nmol/kg s.c. once every 3 days, D31): -28.0±6.8^a % | Cumulative food intake (g/pcs) D0 ([1]; 10 nmol/kg s.c., D0): 2.7 g/pcs | Weight gain rate (%) D0 ([1]; 10 nmol/kg s.c., D0): 0.0±0.0% | Cumulative food intake (g/pcs) D1 ([1]; 10 nmol/kg s.c., D1): 3.0 g/pcs | Weight gain rate (%) D1 ([1]; 10 nmol/kg s.c., D1): -6.4±0.9% | Cumulative food intake (g/pcs) D2 ([1]; 10 nmol/kg s.c., D2): 3.8 g/pcs | Weight gain rate (%) D2 ([1]; 10 nmol/kg s.c., D2): -8.9±1.3% | Cumulative food intake (g/pcs) D3 ([1]; 10 nmol/kg s.c., D3): 5.1 g/pcs | Weight gain rate (%) D3 ([1]; 10 nmol/kg s.c., D3): -8.7±1.9% | Cumulative food intake (g/pcs) D4 ([1]; 10 nmol/kg s.c., D4): 7.4 g/pcs | Weight gain rate (%) D4 ([1]; 10 nmol/kg s.c., D4): -7.7±2.1% | Liver/g [1, 13]: 1.0±0.1^a g | Weight/g [1, 13]: 32.6±3.9^a g | ALT (U/L) [1, 14]: 30.9±3.1^a U/L | AST (U/L) [1, 14]: 110.3±17.6^a U/L | CHOL (mmol/L) [1, 14]: 3.3±0.5^a mmol/L | TRIGL (mmol/L) [1, 14]: 0.6±0.1^a mmol/L | Blood glucose level (mM) 15 min [2, 15]: 13.6 ± 3.1 mM | Blood glucose level (mM) 30 min [2, 16]: 9.9 ± 3.2 mM | Blood glucose level (mM) 60 min [2, 17]: 6.9 ± 0.9 mM | Blood glucose level (mM) 90 min [2, 18]: 7.2 ± 0.9 mM | Blood glucose level (mM) 0 min [2, 19]: 4.9 ± 1.0 mM | AUC0-90 min [2, 20]: 776.9±125.6^a | Random blood glucose (mM) D0 ([3]; 10 nmol/kg s.c. once every three days, D0 (before first dose)): 26.1 ± 3.8 mM | Random blood glucose (mM) D3 ([3]; 10 nmol/kg s.c. once every three days, D3): 22.4 ± 3.7 mM | Random blood glucose (mM) D4 ([3]; 10 nmol/kg s.c. once every three days, D4): 22.1 ± 4.0 mM | Random blood glucose (mM) D5 ([3]; 10 nmol/kg s.c. once every three days, D5): 24.2 ± 3.9 mM | Random blood glucose (mM) D6 ([3]; 10 nmol/kg s.c. once every three days, D6): 25.3 ± 4.0 mM | Random blood glucose (mM) D7 ([3]; 10 nmol/kg s.c. once every three days, D7): 23.5 ± 2.6 mM | Random blood glucose (mM) D10 ([3]; 10 nmol/kg s.c. once every three days, D10): 18.5 ± 5.1 mM | Random blood glucose (mM) D13 ([3]; 10 nmol/kg s.c. once every three days, D13): 20.1 ± 5.8 mM | Random blood glucose (mM) D16 ([3]; 10 nmol/kg s.c. once every three days, D16): 18.6 ± 4.0 mM | Random blood glucose (mM) D19 ([3]; 10 nmol/kg s.c. once every three days, D19): 18.7 ± 3.8 mM | Random blood glucose (mM) D22 ([3]; 10 nmol/kg s.c. once every three days, D22): 16.2 ± 4.6 mM | Random blood glucose (mM) D25 ([3]; 10 nmol/kg s.c. once every three days, D25): 16.6±3.7^a mM | Random blood glucose (mM) 6 h ([3]; 10 nmol/kg s.c., 6 h): 16.8 ± 5.0 mM | Random blood glucose (mM) 24 h ([3]; 10 nmol/kg s.c., 24 h): 13.0 ± 6.7 mM | Random blood glucose (mM) 48 h ([3]; 10 nmol/kg s.c., 48 h): 19.9 ± 5.6 mM | Blood glucose level (mM) 15 min [4, 15]: 12.6 ± 3.5 mM | Blood glucose level (mM) 30 min [4, 16]: 9.5 ± 3.3 mM | Blood glucose level (mM) 60 min [4, 17]: 7.9 ± 1.4 mM | Blood glucose level (mM) 90 min [4, 18]: 6.5 ± 1.3 mM | Blood glucose level (mM) 0 min [4, 19]: 4.0 ± 0.8 mM | AUC0-90 min [4, 20]: 768.2±171.6^a
